Results taken from patent publication US20230233576A1, “ECLITASERTIB FOR USE IN TREATING CONDITIONS INVOLVING SYSTEMIC HYPERINFLAMMATORY RESPONSE” (priority 2020, published 2023).
“And” between values parts separate entries of the source, which are not always exact repeats. Identical values can stand only once.

Experiments:
[1] = system: adult participants hospitalized for severe COVID-19; test: Phase 1b severe COVID-19 study: ECG abnormalities (PCSA); format: in vivo, human; details: for HR (bpm) Delta (change from baseline) / HR (bpm) Value / PR % change from baseline / PR (ms) Value / QRS % change from baseline / QRS (ms) Value / QT (ms) Delta (change from baseline) / QT (ms) Value / QTcB (ms) Delta (change from baseline) / QTcB (ms) Value / QTcF (ms) Delta (change from baseline) / QTcF (ms) Value: Discharge Before Day 15
Description: Physical examination including lung auscultation and assessment of consciousness, vital sign, electrocardiogram (ECG) parameters were measured per protocol.
For laboratory parameters (hematology, clinical chemistry, and urinalysis), vital signs, and ECG, incidences of potentially clinically significant abnormality (PCSA) values, actual values and change from baseline were summarized by treatment group.
For all laboratory, vital signs and ECG parameters, raw data and change from baseline were summarized in descriptive statistics by treatment group and scheduled time of measurement, with the exception of AST, ALT and alkaline phosphatase: instead of summarizing data in descriptive statistics, participants' profiles were presented through graphics by treatment group and with a color code to identify sites. The reason was that blood samples were processed by local laboratories with different normal ranges. For the rest of clinical laboratory these parameters it is reasonable to pool data as they are standard procedure and no significant differences in normal ranges were expected.

[2] = system: C-reactive protein (CRP) levels; test: Phase 1b severe COVID-19 study: CRP level; format: in vivo, human; details: 600 mg; for CRP raw data Mean / CRP relative change from baseline Mean / CRP raw data Median / CRP relative change from baseline Median: observed; for CRP raw data Mean / CRP relative change from baseline Mean: no imputation
[3] = 600 mg (N = 47), TEAE period, safety population
[4] = individual participant 84.0 kg, 600 mg
[5] = individual participant 98.0 kg, 600 mg
[6] = individual participant 114.0 kg, 600 mg
[7] = Day 03, MMRM, LOCF, Efficacy population
[8] = Day 05, MMRM, LOCF, Efficacy population
[9] = Day 07, MMRM, LOCF, Efficacy population
[10] = Day 15, MMRM, LOCF, Efficacy population

CN1C(=O)[C@@H](NC(=O)c2nnc(Cc3ccccc3)[nH]2)COc2cccnc21 [RIPK1 Inhibitor, (S)-5-benzyl-N-(5-methyl-4-oxo-2,3,4,5-tetrahydropyrido[3,2-b][1,4]oxazepin-3-yl)-4H-1,2,4-triazole-3-carboxamide]
ECG PCSA Heart Rate <40 beats/min [1, 3]: 0/44
ECG PCSA Heart Rate <50 beats/min [1, 3]: 1/44
ECG PCSA Heart Rate <50 beats/min and decrease from baseline ≥20 beats/min [1, 3]: 0/44
ECG PCSA Heart Rate >100 beats/min [1, 3]: 3/44
ECG PCSA Heart Rate >100 beats/min and increase from baseline ≥20 beats/min [1, 3]: 3/44
ECG PCSA Heart Rate >120 beats/min [1, 3]: 1/44
ECG PCSA Heart Rate >120 beats/min and increase from baseline 20 beats/min [1, 3]: 1/44
ECG PCSA Heart rate>90 beats/min [1, 3]: 6/44
ECG PCSA PR Interval >200 msec [1, 3]: 1/43
ECG PCSA PR Interval >200 msec and increase from baseline ≥25% [1, 3]: 0/43
ECG PCSA PR Interval >220 msec [1, 3]: 1/43
ECG PCSA PR Interval >220 msec and increase from baseline ≥25% [1, 3]: 0/43
ECG PCSA PR Interval >240 msec [1, 3]: 0/43
ECG PCSA QRS Interval >110 msec [1, 3]: 6/44
ECG PCSA QRS Interval >110 msec and increase from baseline ≥25% [1, 3]: 3/44
ECG PCSA QRS Interval >120 msec [1, 3]: 3/44
ECG PCSA QRS Interval >120 msec and increase from baseline ≥25% [1, 3]: 2/44
ECG PCSA QT Interval >500 msec [1, 3]: 0/44
ECG PCSA QTc Bazett - change from baseline: Increase from baseline >60 msec [1, 3]: 5/39
ECG PCSA QTc Bazett - change from baseline: Increase from baseline ]30-60] msec [1, 3]: 2/39
ECG PCSA QTc Bazett >450 msec [1, 3]: 5/44
ECG PCSA QTc Bazett >500 msec [1, 3]: 3/44
ECG PCSA QTc Bazett>480 msec [1, 3]: 3/44
ECG PCSA QTc Fridericia - change from baseline: Increase from baseline >60 msec [1, 3]: 2/25
ECG PCSA QTc Fridericia - change from baseline: Increase from baseline ]30-60] msec [1, 3]: 2/25
ECG PCSA QTc Fridericia >450 msec [1, 3]: 1/29
ECG PCSA QTc Fridericia >480 msec [1, 3]: 1/29
ECG PCSA QTc Fridericia >500 msec [1, 3]: 0/29
ECG PCSA heart rate>90 beats/min and increase from baseline≥20 beats/min [1, 3]: 5/44
ECG PCSA Heart rate>90 beats/min ([1]; 600 mg, TEAE period): 6 participants
ECG PCSA QRS interval>110 ms ([1]; 600 mg, TEAE period): 6 participants
ECG PCSA QTc Bazett (QTcB)>450 ms ([1]; 600 mg, TEAE period): 5 participants
ECG PCSA QTc Bazett change from baseline>60 ms ([1]; 600 mg, TEAE period): 5 participants
ECG PCSA QTc Bazett>480 msec ([1]; 600 mg, TEAE period): 3 participants
ECG PCSA QTc Bazett>500 ms ([1]; 600 mg, TEAE period): 3 participants
ECG PCSA heart rate>90 beats/min and increase from baseline≥20 beats/min ([1]; 600 mg, TEAE period): 5 participants
HR (bpm) Delta (change from baseline) [1, 4]: −5 bpm
HR (bpm) Value [1, 4]: 73 bpm
PR % change from baseline [1, 4]: 0.0%
PR (ms) Value [1, 4]: 120 ms
QRS % change from baseline [1, 4]: 5.0%
QRS (ms) Value [1, 4]: 84 ms
QT (ms) Delta (change from baseline) [1, 4]: 0 ms
QT (ms) Value [1, 4]: 380 ms
QTcB (ms) Delta (change from baseline) [1, 4]: 69 ++ ms
QTcB (ms) Value [1, 4]: 449 ms
QTcF (ms) Delta (change from baseline) [1, 4]: -34 ms
QTcF (ms) Value [1, 4]: 380 ms
HR (bpm) Delta (change from baseline) [1, 5]: −1 bpm
HR (bpm) Value [1, 5]: 81 bpm
PR % change from baseline [1, 5]: 12.3%
PR (ms) Value [1, 5]: 164 ms
QRS % change from baseline [1, 5]: −14%
QRS (ms) Value [1, 5]: 95 ms
QT (ms) Delta (change from baseline) [1, 5]: -3 ms
QT (ms) Value [1, 5]: 371 ms
QTcB (ms) Delta (change from baseline) [1, 5]: 84 ++ ms
QTcB (ms) Value [1, 5]: 431 ms
QTcF (ms) Delta (change from baseline) [1, 5]: -5 ms
QTcF (ms) Value [1, 5]: 410 ms
HR (bpm) Delta (change from baseline) [1, 6]: 38 + bpm
HR (bpm) Value [1, 6]: 96 + bpm
PR % change from baseline [1, 6]: −11%
PR (ms) Value [1, 6]: 160 ms
QRS % change from baseline [1, 6]: −20%
QRS (ms) Value [1, 6]: 80 ms
QT (ms) Delta (change from baseline) [1, 6]: -30 ms
QT (ms) Value [1, 6]: 360 ms
QTcB (ms) Delta (change from baseline) [1, 6]: 72 ++ ms
QTcB (ms) Value [1, 6]: 455 + ms
QTcF (ms) Delta (change from baseline) [1, 6]: 36 + ms
QTcF (ms) Value [1, 6]: 421 ms
Percent change from baseline in CRP, point estimate [2, 7]: −12.85%
Relative change from baseline in CRP, point estimate (geometric means) [2, 7]: 0.87
CRP raw data Mean ([2]; Day 3, Efficacy population): 59.4 mg/L
CRP relative change from baseline Mean ([2]; Day 3, Efficacy population): 0.58 and 0.581
CRP raw data Median ([2]; Day 3, Efficacy population): 44.4 mg/L
CRP relative change from baseline Median ([2]; Day 3, Efficacy population): 0.384
relative change from baseline in CRP, RIPK1 Inhibitor versus placebo ratio ([2]; Day 3, with imputation of missing data): 0.91
relative change from baseline in CRP, RIPK1 Inhibitor versus placebo ratio ([2]; Day 3, without imputation of missing data): 0.92
Percent change from baseline in CRP, point estimate [2, 8]: −51.43%
Relative change from baseline in CRP, point estimate (geometric means) [2, 8]: 0.49
CRP raw data Mean ([2]; Day 5, Efficacy population): 37.7 mg/L
CRP relative change from baseline Mean ([2]; Day 5, Efficacy population): 0.37 and 0.368
CRP raw data Median ([2]; Day 5, Efficacy population): 24.2 mg/L
CRP relative change from baseline Median ([2]; Day 5, Efficacy population): 0.195
relative change from baseline in CRP, RIPK1 Inhibitor versus placebo ratio ([2]; Day 5, with imputation of missing data): 0.70
relative change from baseline in CRP, RIPK1 Inhibitor versus placebo ratio ([2]; Day 5, without imputation of missing data): 0.73
mean of relative change from baseline in CRP ([2]; Day 7, LOCF imputation): 0.315
median of relative change from baseline in CRP ([2]; Day 7, LOCF imputation): 0.165
Percent change from baseline in CRP, point estimate [2, 9]: −64.81%
Relative change from baseline in CRP, point estimate (geometric means) [2, 9]: 0.35
ratio of the adjusted relative change from baseline in CRP, RIPK1 Inhibitor vs placebo (point estimate) ([2]; Day 7, MMRM, LOCF, Efficacy population, below 1 = larger decrease than placebo): 0.85
observed mean of CRP ([2]; Day 7, missing values imputed with LOCF): 28.1 mg/L
CRP raw data Mean ([2]; Day 7, Efficacy population): 24.2 mg/L
CRP relative change from baseline Mean ([2]; Day 7, Efficacy population): 0.289
CRP raw data Median ([2]; Day 7, Efficacy population): 14.0 mg/L
CRP relative change from baseline Median ([2]; Day 7, Efficacy population): 0.119
Percent change from baseline in CRP, point estimate [2, 10]: −71.76%
Relative change from baseline in CRP, point estimate (geometric means) [2, 10]: 0.28
CRP raw data Mean ([2]; Day 15, Efficacy population): 29.2 mg/L
CRP relative change from baseline Mean ([2]; Day 15, Efficacy population): 0.380
CRP raw data Median ([2]; Day 15, Efficacy population): 9.6 mg/L
CRP relative change from baseline Median ([2]; Day 15, Efficacy population): 0.092
median time for 50% decrease in CRP level relative to baseline ([2]; Kaplan-Meier, Efficacy population): 3 days
participants with 50% decrease from baseline in CRP ([2]; by Day 3): 69.2%
